From publication PMC5154685 (Journal of medicinal chemistry, 2016)

Tests used:
[1] = molecular target: Eis_Mtb acetyltransferase (Mycobacterium tuberculosis, UniProt P9WFK7); type: biochemical; settings: for Extent of Eis inhibition of HTS compounds (in words): follow-up description
[2] = molecular target: AAC(6′)-Ie/APH(2″)-Ia (Staphylococcus aureus, UniProt P0A0C1); test: Inhibitor selectivity, AAC; type: biochemical; settings: concentrations as high as 200 μM
[3] = molecular target: AAC(2′)-Ic (Mycobacterium tuberculosis, UniProt P9WQG9); test: Inhibitor selectivity, AAC
AAC(2′)-Ic, sequence (P9WQG9 whole entry): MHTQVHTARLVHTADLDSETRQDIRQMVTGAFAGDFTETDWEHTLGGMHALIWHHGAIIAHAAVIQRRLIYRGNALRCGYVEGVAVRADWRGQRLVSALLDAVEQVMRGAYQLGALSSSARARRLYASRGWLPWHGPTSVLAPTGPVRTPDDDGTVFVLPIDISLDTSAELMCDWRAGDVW

Eis_Mtb acetyltransferase, sequence (P9WFK7 whole entry): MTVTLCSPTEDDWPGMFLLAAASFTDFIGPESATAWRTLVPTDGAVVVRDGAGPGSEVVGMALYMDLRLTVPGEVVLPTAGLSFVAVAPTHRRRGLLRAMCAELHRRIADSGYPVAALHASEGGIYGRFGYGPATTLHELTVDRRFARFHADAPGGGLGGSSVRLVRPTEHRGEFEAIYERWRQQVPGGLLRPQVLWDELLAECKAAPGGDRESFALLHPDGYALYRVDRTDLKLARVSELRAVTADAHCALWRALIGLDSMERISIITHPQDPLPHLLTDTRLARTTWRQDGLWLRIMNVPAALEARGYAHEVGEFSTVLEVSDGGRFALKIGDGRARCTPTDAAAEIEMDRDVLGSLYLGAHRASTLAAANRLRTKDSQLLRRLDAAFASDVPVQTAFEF
AAC(6′)-Ie/APH(2″)-Ia, sequence (P0A0C1 whole entry): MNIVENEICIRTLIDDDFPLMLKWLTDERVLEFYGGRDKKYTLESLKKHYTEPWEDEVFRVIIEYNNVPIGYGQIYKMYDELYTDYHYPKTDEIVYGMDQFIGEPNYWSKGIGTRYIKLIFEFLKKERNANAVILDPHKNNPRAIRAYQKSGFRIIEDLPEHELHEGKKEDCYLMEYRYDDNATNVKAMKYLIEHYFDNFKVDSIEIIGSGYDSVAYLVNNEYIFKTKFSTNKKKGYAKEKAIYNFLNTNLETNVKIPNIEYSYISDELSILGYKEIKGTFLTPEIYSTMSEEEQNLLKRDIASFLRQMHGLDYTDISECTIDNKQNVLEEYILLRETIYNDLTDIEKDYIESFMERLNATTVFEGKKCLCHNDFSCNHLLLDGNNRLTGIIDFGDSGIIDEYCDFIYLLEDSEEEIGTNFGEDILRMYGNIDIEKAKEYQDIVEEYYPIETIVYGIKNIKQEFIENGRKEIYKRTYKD

SMILES: O=c1[nH]c2ccc(S(=O)(=O)Nc3ccc(Cl)c(C(F)(F)F)c3)cc2[nH]c1=O [Compound 3]
- Extent of Eis inhibition of HTS compounds (in words) [1]: modest Eis inhibition

SMILES: CN(c1ccc(Br)cc1)S(=O)(=O)c1ccc2[nH]c(=O)c(=O)[nH]c2c1 [Compound 29, N-(4-Bromophenyl)-N-methyl-2,3-dioxo-1,2,3,4-tetrahydro-6-quinoxalinesulfonamide]
- Eis inhibition in the HTS (hit or not) [1]: hits

SMILES: O=c1[nH]c2ccc(S(=O)(=O)Nc3ccc4c(c3)OCCO4)cc2[nH]c1=O [Compound 4]
- Extent of Eis inhibition of HTS compounds (in words) [1]: modest Eis inhibition

SMILES: Cc1cc(NS(=O)(=O)c2ccc3[nH]c(=O)c(=O)[nH]c3c2)ccc1Br [Compound 1]
- Extent of Eis inhibition of HTS compounds (in words) [1]: modest Eis inhibition

SMILES: CN(c1ccc2ccccc2c1)S(=O)(=O)c1ccc2[nH]c(=O)c(=O)[nH]c2c1 [Compound 46, N-(2-Naphthyl)-N-methyl-2,3-dioxo-1,2,3,4-tetrahydro-6-quinoxalinesulfonamide]
- inhibition of acetylation by AAC(6′)-Ie/APH(2″)-Ia (in words) [2]: did not inhibit
- inhibition of acetylation by AAC(2′)-Ic (in words) [3]: did not inhibit

SMILES: COc1cccc(N(C)S(=O)(=O)c2ccc3[nH]c(=O)c(=O)[nH]c3c2)c1 [Compound 39, N-(3-Methoxyphenyl)-N-methyl-2,3-dioxo-1,2,3,4-tetrahydro-6-quinoxalinesulfonamide]
- inhibition of acetylation by AAC(6′)-Ie/APH(2″)-Ia (in words) [2]: did not inhibit
